Source: patent publication US20190054035A1, “SELF-ASSEMBLED PEPTIDE NANOFIBERS AND USE THEREOF FOR TARGETED DRUG DELIVERY” (Yissum Research Development Company of the Hebrew …, priority 2017, published 2019)
Entries after “also recorded” stand apart in the source; their conditions may differ. Where a SMILES comes first, the peptide text is derived from it. The star is where a group is joined. Fmoc = O=C(OCC1c2ccccc2-c2ccccc21)*; Cbz = O=C(OCc1ccccc1)*

Key:
cathepsin B [1] = biological target: T1, cathepsin B (Homo sapiens, UniProt P07858); experiment: Cleavage of substrate peptides by cathepsin B, fragment analysis by LC-MS; format: biochemical; conditions: 3 hours at 37° C., pH 5.5, LC-MS fragment analysis
T1 construct: made in house; host or cells: E. coli BL21(DE3)pLysS
Experimental: (§1) Each peptide (1 nmole) was treated with […] cathepsin B or cathepsin L (generated by transformation of E. coli BL21(DE3)pLysS strain with the pET3a/procathepsin B or procathepsin L vectors) or acetate buffer vehicle (50 mM acetate, 5 mM MgCl2, 2 mM DTT, adjusted to pH 5.5) for 3 hours at 37° C. Next, enzymes were precipitated by an hour incubation at −80° C. in 80% cold methanol followed by 10 minutes of 6000 g centrifugation at 4° C. Supernatant volume was reduced to about 15 μl under vacuum, adjusted to a final volume of 30 μl with methanol and analyzed by LCMS equipped with C18 reverse phase.

cathepsin L = biological target: T2, cathepsin L (Homo sapiens, UniProt P07711); experiment: Cleavage of substrate peptides by cathepsin L, fragment analysis by LC-MS; format: biochemical; conditions: 3 hours at 37° C., pH 5.5, LC-MS fragment analysis
T2 construct: made in house; host or cells: E. coli BL21(DE3)pLysS
T2 sequence (P07711 18-333 limits assumed): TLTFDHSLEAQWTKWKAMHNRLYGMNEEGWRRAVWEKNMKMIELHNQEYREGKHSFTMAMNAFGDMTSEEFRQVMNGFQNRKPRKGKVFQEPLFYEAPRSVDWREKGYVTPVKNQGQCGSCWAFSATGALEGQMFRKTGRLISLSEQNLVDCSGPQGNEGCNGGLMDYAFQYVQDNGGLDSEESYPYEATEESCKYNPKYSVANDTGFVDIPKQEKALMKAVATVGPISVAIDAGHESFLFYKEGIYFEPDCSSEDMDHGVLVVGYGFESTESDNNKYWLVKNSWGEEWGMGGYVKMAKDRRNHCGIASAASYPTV
Experimental: as §1

[2] = Self-assembly of TPSs into nanofibers, electron microscopy (TEM/SEM); format: physicochemical; conditions: for Diameter of TPS nanofibers / self-assembly into ordered nanofibers: TEM; for Diameter of TPS nanofibers: solvent switching DMSO to water; for self-assembly into ordered nanofibers: 5 mg/ml (1 mg/ml TPS8, TPS9)
Experimental: Lyophilized peptides were dissolved in DMSO to a concentration of 100 mg/ml and then diluted in DDW to the indicated final concentration.
Transmission electron microscopy (TEM) analysis was performed by applying 10 μl of samples to a 200 or 400-mesh copper grids covered by carbon-stabilized Formvar film (SPI, West Chester, Pa.). The samples were allowed to adsorb for 2 minutes before excess fluid was blotted off. Samples were negatively stained by depositing 10 μl of 2% uranyl acetate on the grid and allowing it to adsorb for 2 minutes before excess fluid was blotted off. Except the sample in FIG. 9E, all samples were negatively stained. TEM micrographs were recorded using a JEOL 1200EX or JEOL JEM-1400Plus electron microscope operating at different kV.
Scanning Electron Microscopy (SEM) samples were prepared as described above for TEM on a 400-mesh copper grids, without uranyl acetate staining, and viewed using FBI Magellan™ 400L system.

[3] = Kinetics of TPS4 self-assembly by turbidity; format: physicochemical; conditions: 0.5, 1 or 2 mg/ml, 37° C., first 5 hours
Experimental: Freshly prepared aliquots of 0.5, 1 or 2 mg/ml of TPS4 were placed in triplicates in a 96-well plate, 100 ul/well. Plate was placed at 37° C. in a Biotek Cytation 3 plate reader (Winooski, Vt., USA) and absorbance at 350 nm was measured every 2 minutes during 5 hours.

MDA-MB 231 cells = experiment: TPS4 nanofibers cytotoxicity, methylene blue assay; format: cell-based, human; conditions: 0.5 mg/ml nanofibers, 24 or 48 hours
Experimental: MDA-MB 231 human breast adenocarcinoma cells were cultured in Dulbecco's modified eagle's medium (DMEM) supplemented with 10% fetal bovine serum (FBS), 1% penicillin and 1% streptomycin in a humidified atmosphere of 5% CO2 at 37° C. One day prior to treatment MDA-MB 231 cells (7×10^3 cells/well) were cultured in a 96-well plate. The media of TPS4 that was assembled in DMEM was removed by centrifugation (14,000 rpm, 4° C.) and the nanofibers were resuspended in DMEM supplemented with 10% […], 1% penicillin and 1% streptomycin. Cells in triplicates were incubated with 0.5 mg/ml of TPS4 nanofibers (final concentration of 0.1% DMSO was kept constant) in growth medium at 37° C. After 24 or 48 hours of treatment, cell survival was determined by standard methylene blue assay.

4T1 tumor lysates = experiment: Nanofibers degradation by 4T1 tumor lysates; format: biochemical, mice
Experimental: (§2) Tissue lysates were prepared as previously described. Assembly of TPS4 in triplicates was performed for 4 hours in acetate buffer as described in FIG. 6B. Next, 100 μg of lysates from 4T1 tumor or muscles, or RIPA vehicle control (1% Tergitol-type NP-40 (nonyl phenoxypolyethoxylethanol), 0.1% SDS, 0.5% sodium deoxycholate) were added in acetate buffer. The absorbance was read at 350 nm after gentle shaking at 37° C. for indicated times using a BioTek plate reader.

cathepsin B [4] = biological target: T1, cathepsin B; experiment: Turbidity analysis of TPS4 nanofiber degradation by cathepsin B; format: biochemical; conditions: 0.5, 1 and 2 mg/ml TPS4, 37° C.
Experimental: Turbidity analysis for TPS4 solutions was conducted using triplicates of freshly prepared solutions as described above in a 96 well plate. Aliquots of 1, 2 or 4 mg/ml were allowed to assemble for 4-5 hours at room temperature. Next, 0.064, 0.128 or 0.255 μM of cathepsin B or acetate buffer vehicle were added, diluting the samples to 0.5, 1, and 2 mg/ml, respectively. The plate was placed at 37° C. in a Biotek Synergy HT plate reader (Winooski, Vt., USA) and absorbance was measured for 12 hours as described above. After 24 hours since enzyme addition, a color picture was taken and the turbidity was measured again.

[5] = system: lysates from mice muscles; experiment: Nanofibers degradation by mice muscle lysates; format: biochemical; conditions: 0.5 mg/ml TPS4, mice muscle lysates, first ten hours
Experimental: as §2

Row | Number of amino acids removed from each TPS after cathepsin treatment, Cat B (cathepsin B [1]) | Number of amino acids removed from each TPS after cathepsin treatment, Cat L (cathepsin L) | Diameter of TPS nanofibers [2] | Compound | other results
1 | 1 | 1 | 66 ± 13 nm | Fmoc-Phe-Lys-Phe-NH2 [TPS5] | –
2 | – | 2 | 30 ± 6 nm | Cbz-FFKF-NH2 [TPS8] | –
3 | 2 | 2 | 24 ± 6 nm | NCCCC[C@H](NC(=O)[C@H](Cc1ccccc1)NC(=O)[C@H](Cc1ccccc1)NC(=O)OCc1ccccc1)C(=O)N[C@@H](Cc1ccccc1)C(=O)O [TPS4, Cbz-FFKF-OH] (Cbz-FFKF-OH) | increase in turbidity (absorbance at 350 nm) during self-assembly [3]: up to 2.8±0.6 folds; cytotoxicity / growth inhibition (MDA-MB 231 cells): no growth inhibition; also recorded: no cytotoxicity; nanofiber degradation over time (4T1 tumor lysates; 0.5 mg/ml TPS4, 4T1 tumor lysates, turbidity at 350 nm): degraded the majority of TPS4 nanofibers within two hours; remaining nanofibers relative to vehicle (absorbance at 350 nm) (4T1 tumor lysates; overnight lysate treatment, all concentrations tested): less than 20%; nanofiber degradation at the lowest concentration (4T1 tumor lysates; overnight lysate treatment, lowest TPS4 concentration): full degradation; degradation of assembled nanofibers by cathepsin B (turbidity at 350 nm) (cathepsin B [4]): significant and robust degradation; time to form fibers upon assembly initiation ([2]; microscopic examination (data not shown)): instantly formed fibers; nanofiber degradation over time [5]: limited effect
4 | – | – | 13 ± 4 nm | Fmoc-FFKF-NH2 [TPS9] | –
5 | 1 | 2 | – | Ac-FFKF-amide [TPS7] | self-assembly into ordered nanofibers [2]: excluding
6 | 1 | 2 | – | NH2-FFKF-amide [TPS6] | self-assembly into ordered nanofibers [2]: excluding

Row | Compound | Number of amino acids removed from each TPS after cathepsin treatment, Cat B (cathepsin B [1]) | Number of amino acids removed from each TPS after cathepsin treatment, Cat L (cathepsin L) | Diameter of TPS nanofibers [2] | other results
7 | NH2-FFKF-OH (H-FFKF-OH) [TPS1] | 1 | 2 | 310 ± 80 nm | –
8 | Ac-FFKF-OH [TPS2] | 2 | 2 | 12 ± 1 nm | –
9 | Fmoc-FFKF-OH (SMILES NCCCC[C@H](NC(=O)[C@H](Cc1ccccc1)NC(=O)[C@H](Cc1ccccc1)NC(=O)OCC1c2ccccc2-c2ccccc21)C(=O)N[C@@H](Cc1ccccc1)C(=O)O) [TPS3] | – | 2 | 14 ± 2 nm | –
